# In patent US12655116B2, “Substituted isophthalic acid diamides” (Bayer Aktiengesellschaft, priority 2020, dated 2026):
# Key:
# ALOMY [1] = assay: Post-emergence herbicidal action against ALOMY; assay type: in vivo, Alopecurus myosuroides; details: dosage 20 g/ha, visual assessment about 3 weeks after treatment vs untreated controls
# Method in brief: (§1)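 Herbicidal action is a visual percentage rating (0% = as untreated control, 100% = plants dead) made roughly 3 weeks after treatment. Plants were grown in sandy loam in the greenhouse and treated at the one-leaf stage, 2 to 3 weeks post-sowing. Treatment was a foliar spray of wettable-powder or emulsion-concentrate formulations at 600 to 800 l/ha water plus 0.2% wetting agent.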
# MATIN [2] = assay: Pre-emergence herbicidal action against MATIN; assay type: in vivo, Matricaria inodora
# Method in brief: (§2)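 Sandy loam pots, seeds covered with soil, then surface-treated with WP or EC formulations at 600–800 l/ha water plus 0.2% wetting agent. Greenhouse, 3 weeks. Percent damage vs untreated controls.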
# STEME [3] = assay: Post-emergence herbicidal action against STEME; assay type: in vivo, Stellaria media
# Method in brief: as §1
# VIOTR [4] = assay: Pre-emergence herbicidal action against VIOTR; assay type: in vivo, Viola tricolor
# Method in brief: as §2
# AMARE [5] = assay: Pre-emergence herbicidal action against AMARE; assay type: in vivo, Amaranthus retroflexus
# Method in brief: as §2
# PHBPU [6] = assay: Post-emergence herbicidal action against PHBPU; assay type: in vivo, Pharbitis purpurea
# Method in brief: as §1
# SETVI [7] = assay: Pre-emergence herbicidal action against SETVI; assay type: in vivo, Setaria viridis
# Method in brief: as §2
# VERPE [8] = assay: Post-emergence herbicidal action against VERPE; assay type: in vivo, Veronica persica; details: 20 g/ha
# Method in brief: as §1
# STEME [9] = assay: Pre-emergence herbicidal action against STEME; assay type: in vivo, Stellaria media
# Method in brief: as §2
# AVEFA = assay: Pre-emergence herbicidal action against AVEFA; assay type: in vivo, Avena fatua; details: 80 g/ha, pre-emergence
# Method in brief: as §2
# DIGSA [10] = assay: Post-emergence herbicidal action against DIGSA; assay type: in vivo, Digitaria sanguinalis
# Method in brief: as §1
# ECHCG [11] = assay: Post-emergence herbicidal action against ECHCG; assay type: in vivo, Echinochloa crus-galli
# Method in brief: as §1
# ABUTH [12] = assay: Pre-emergence herbicidal action against ABUTH; assay type: in vivo, Abutilon theophrasti
# Method in brief: as §2
# ABUTH [13] = assay: Post-emergence herbicidal action against ABUTH; assay type: in vivo, Abutilon theophrasti; details: visual assessment about 3 weeks after treatment vs untreated controls
# Method in brief: as §1
# AMARE [14] = assay: Post-emergence herbicidal action against AMARE; assay type: in vivo, Amaranthus retroflexus; details: 20 g/ha, visual assessment about 3 weeks after treatment, 100% = plants have died, 0% = like control plants
# Method in brief: as §1
# VIOTR [15] = assay: Post-emergence herbicidal action against VIOTR; assay type: in vivo, Viola tricolor
# Method in brief: as §1
# DIGSA [16] = assay: Pre-emergence herbicidal action against DIGSA; assay type: in vivo, Digitaria sanguinalis
# Method in brief: as §2
# HORMU = assay: Post-emergence herbicidal action against HORMU; assay type: in vivo, Hordeum murinum; details: dosage 20 g/ha
# Method: Seeds of monocotyledonous and dicotyledonous weed and crop plants are laid out in sandy loam soil in wood-fiber pots, covered with soil and cultivated in a greenhouse under good growth conditions. 2 to 3 weeks after sowing, the test plants are treated at the one-leaf stage. The compounds of the invention, formulated in the form of wettable powders (WP) or as emulsion concentrates (EC), are then sprayed onto the green parts of the plants in the form of an aqueous suspension or emulsion at a water application rate equivalent to 600 to 800 l/ha, with addition of 0.2% wetting agent. After the test plants have been left to stand in the greenhouse under optimal growth conditions for about 3 weeks, the action of the preparations is assessed visually in comparison to untreated controls (herbicidal action in percent (%): 100% activity=the plants have died, 0% activity=like control plants). […] The tables below illustrate, in an illustrative manner, the post-emergence herbicidal action of the compounds of the invention, the herbicidal activity being stated in percent.
# PHBPU [17] = assay: Pre-emergence herbicidal action against PHBPU; assay type: in vivo, Pharbitis purpurea; details: dosage 80 g/ha
# Method in brief: as §2
# SETVI [18] = assay: Post-emergence herbicidal action against SETVI; assay type: in vivo, Setaria viridis; details: dosage 20 g/ha
# Method in brief: as §1
# ECHCG [19] = assay: Pre-emergence herbicidal action against ECHCG; assay type: in vivo, Echinochloa crus-galli
# Method in brief: as §2
# VERPE [20] = assay: Pre-emergence herbicidal action against VERPE; assay type: in vivo, Veronica persica; details: Veronica persica, 504 h
# Method in brief: as §2
# POLCO = assay: Pre-emergence herbicidal action against POLCO; assay type: in vivo, Polygonum convolvulus; details: Fallopia convolvulus, 504 h, dosage 80 g/ha
# Method in brief: as §2
# LOLRI = assay: Pre-emergence herbicidal action against LOLRI; assay type: in vivo, Lolium rigidum; details: Lolium rigidum, 504 h, 80 g/ha
# Method in brief: as §2
# ALOMY [21] = assay: Pre-emergence herbicidal action against ALOMY; assay type: in vivo, Alopecurus myosuroides; details: Alopecurus myosuroides, 504 h; 80 g/ha, pre-emergence, scored visually after 3 weeks vs untreated controls (100% = plants have died, 0% = like control plants)
# Method in brief: as §2
# MATIN [22] = assay: Post-emergence herbicidal action against MATIN; assay type: in vivo, Matricaria inodora; details: Tripleurospermum inodorum, 504 h, dosage 20 g/ha
# Method in brief: as §1
# [23] = 80 g/ha, scored visually after 3 weeks vs untreated controls (100% = plants have died, 0% = like control plants)
smiles,measurement,setting,value
CCNC(=O)c1c(C(F)(F)F)ccc(C(=O)Nc2nnco2)c1SC [Example 5-59],Post-emergence action against ALOMY in %,ALOMY [1],80%
same,Pre-emergence action against MATIN in %,MATIN [2]; dosage 20 g/ha,80%
same,Pre-emergence action against MATIN in %,MATIN [2]; dosage 80 g/ha,90%
same,Post-emergence action against STEME in %,STEME [3]; 20 g/ha,100%
same,Post-emergence action against STEME in %,STEME [3]; dosage 5 g/ha,90%
same,Pre-emergence action against VIOTR in %,VIOTR [4]; dosage 20 g/ha,100%
same,Pre-emergence action against VIOTR in %,VIOTR [4]; dosage 80 g/ha,100%
same,Pre-emergence action against AMARE in %,"AMARE [5]; 20 g/ha, scored visually after 3 weeks vs untreated controls, 100% = plants have died, 0% = like control plants",100%
same,Pre-emergence action against AMARE in %,AMARE [5]; [23],100%
same,Post-emergence action against PHBPU in %,PHBPU [6]; dosage 5 g/ha,80%
same,Post-emergence action against PHBPU in %,PHBPU [6]; dosage 20 g/ha,90%
same,Pre-emergence action against SETVI in %,SETVI [7]; dosage 80 g/ha,100%
same,Post-emergence action against VERPE in %,VERPE [8],80%
same,Pre-emergence action against STEME in %,STEME [9]; dosage 20 g/ha,90%
same,Pre-emergence action against STEME in %,STEME [9]; dosage 80 g/ha,100%
same,Pre-emergence action against AVEFA in %,AVEFA,80%
same,Post-emergence action against DIGSA in %,DIGSA [10]; 5 g/ha,90%
same,Post-emergence action against DIGSA,DIGSA [10]; 20 g/ha,90%
same,Post-emergence action against ECHCG in %,ECHCG [11]; dosage 5 g/ha,80%
same,Post-emergence action against ECHCG in %,ECHCG [11]; dosage 20 g/ha,90%
same,Pre-emergence action against ABUTH (herbicidal activity),ABUTH [12]; [23],100%
same,Pre-emergence action against ABUTH (herbicidal activity in percent),"ABUTH [12]; dosage 20 g/ha, scored visually after 3 weeks vs untreated controls, 100% = plants have died, 0% = like control plants",100%
same,Post-emergence action against ABUTH in %,ABUTH [13]; dosage 5 g/ha,90%
same,Post-emergence action against ABUTH in %,ABUTH [13]; dosage 20 g/ha,90%
same,Post-emergence action at 20 g/ha against AMARE in %,AMARE [14],90%
same,Post-emergence action against VIOTR in %,VIOTR [15]; 20 g/ha,80%
same,Pre-emergence action against DIGSA in %,DIGSA [16]; dosage 20 g/ha,100%
same,Pre-emergence action against DIGSA in %,DIGSA [16]; dosage 80 g/ha,100%
same,Post-emergence action against HORMU in %,HORMU,80%
same,Pre-emergence action against PHBPU in %,PHBPU [17],80%
same,Post-emergence action against SETVI in %,SETVI [18],90%
same,Pre-emergence action against ECHCG in %,ECHCG [19]; 20 g/ha,80%
same,Pre-emergence action against ECHCG in %,ECHCG [19]; 80 g/ha,100%
CNC(=O)c1c(C(F)(F)F)ccc(C(=O)Nc2nnnn2C)c1C [Example 1-25],pest or weed control at 20 g/ha,"ALOMY [1]; Alopecurus myosuroides, 504 h",100%
same,pest or weed control at 20 g/ha,"MATIN [2]; Tripleurospermum inodorum, 504 h, dosage 20 g/ha",90%
same,pest or weed control at 80 g/ha,"MATIN [2]; Tripleurospermum inodorum, 504 h, dosage 80 g/ha",100%
same,pest or weed control at 20 g/ha,"STEME [3]; Stellaria media, 504 h, 20 g/ha",100%
same,pest or weed control at 5 g/ha,"STEME [3]; Stellaria media, 504 h, dosage 5 g/ha",80%
same,pest or weed control at 20 g/ha,"VIOTR [4]; Viola tricolor, 504 h, dosage 20 g/ha",80%
same,pest or weed control at 80 g/ha,"VIOTR [4]; Viola tricolor, 504 h, dosage 80 g/ha",100%
same,pest or weed control at 20 g/ha,"AMARE [5]; Amaranthus retroflexus, 504 h, 20 g/ha, scored visually after 3 weeks vs untreated controls, 100% = plants have died, 0% = like control plants",100%
same,pest or weed control at 80 g/ha,"AMARE [5]; Amaranthus retroflexus, 504 h, 80 g/ha, scored visually after 3 weeks vs untreated controls, 100% = plants have died, 0% = like control plants",100%
same,pest or weed control at 20 g/ha,"PHBPU [6]; Ipomoea purpurea, 504 h, dosage 20 g/ha",80%
same,pest or weed control at 20 g/ha,"SETVI [7]; Setaria viridis, 504 h, dosage 20 g/ha",80%
same,pest or weed control at 80 g/ha,"SETVI [7]; Setaria viridis, 504 h, dosage 80 g/ha",100%
same,pest or weed control at 20 g/ha,"VERPE [8]; Veronica persica, 504 h",80%
same,pest or weed control at 20 g/ha,"STEME [9]; Stellaria media, 504 h, dosage 20 g/ha",80%
same,pest or weed control at 80 g/ha,"STEME [9]; Stellaria media, 504 h, dosage 80 g/ha",90%
same,pest or weed control at 80 g/ha,"AVEFA; Avena fatua, 504 h",90%
same,pest or weed control at 20 g/ha,VERPE [20]; dosage 20 g/ha,80%
same,pest or weed control at 80 g/ha,VERPE [20]; dosage 80 g/ha,100%
same,pest or weed control at 5 g/ha,"DIGSA [10]; Digitaria sanguinalis, 504 h, 5 g/ha",90%
same,pest or weed control at 20 g/ha,"DIGSA [10]; Digitaria sanguinalis, 504 h, 20 g/ha",100%
same,pest or weed control at 80 g/ha,POLCO,80%
same,pest or weed control at 20 g/ha,"ECHCG [11]; Echinochloa crus-galli, 504 h, dosage 20 g/ha",100%
same,pest or weed control at 80 g/ha,"ABUTH [12]; Abutilon theophrasti, 504 h, 80 g/ha, scored visually after 3 weeks vs untreated controls (100% = plants have died, 0% = like control plants)",100%
same,pest or weed control at 5 g/ha,"ABUTH [13]; Abutilon theophrasti, 504 h, dosage 5 g/ha",100%
same,pest or weed control at 20 g/ha,"ABUTH [13]; Abutilon theophrasti, 504 h, dosage 20 g/ha",100%
same,pest or weed control at 20 g/ha,"AMARE [14]; Amaranthus retroflexus, 504 h",100%
same,pest or weed control at 80 g/ha,LOLRI,80%
same,pest or weed control at 5 g/ha,"VIOTR [15]; Viola tricolor, 504 h, 5 g/ha",100%
same,pest or weed control at 20 g/ha,"VIOTR [15]; Viola tricolor, 504 h, 20 g/ha",100%
same,pest or weed control at 80 g/ha,ALOMY [21],90%
same,pest or weed control at 20 g/ha,"DIGSA [16]; Digitaria sanguinalis, 504 h, dosage 20 g/ha",90%
same,pest or weed control at 80 g/ha,"DIGSA [16]; Digitaria sanguinalis, 504 h, dosage 80 g/ha",100%
same,pest or weed control at 20 g/ha,"HORMU; Hordeum murinum, 504 h",100%
same,pest or weed control at 80 g/ha,"PHBPU [17]; Ipomoea purpurea, 504 h",90%
same,pest or weed control at 20 g/ha,"SETVI [18]; Setaria viridis, 504 h",80%
same,pest or weed control at 80 g/ha,"ECHCG [19]; Echinochloa crus-galli, 504 h, 80 g/ha",100%
same,pest or weed control at 20 g/ha,MATIN [22],100%
